Data: PMC10023787, “Trio-pharmacophore DNA-encoded chemical library for simultaneous selection of fragments and linkers” (Nature Communications, 2023)
Read-outs that look alike come from different tables or passages of the source.

Key:
MMP-9 = target: T1, MMP-9 (Homo sapiens, UniProt P14780); assay: MMP-9 inhibition assay (fluorogenic peptide substrate); format: biochemical; design: remaining enzyme activity (% of control): scale not given here; settings: for IC50: n.d: not detected
T1 construct: purchased Sino Biological 10327-HNAH
T1 sequence (P14780 107-707 limits assumed): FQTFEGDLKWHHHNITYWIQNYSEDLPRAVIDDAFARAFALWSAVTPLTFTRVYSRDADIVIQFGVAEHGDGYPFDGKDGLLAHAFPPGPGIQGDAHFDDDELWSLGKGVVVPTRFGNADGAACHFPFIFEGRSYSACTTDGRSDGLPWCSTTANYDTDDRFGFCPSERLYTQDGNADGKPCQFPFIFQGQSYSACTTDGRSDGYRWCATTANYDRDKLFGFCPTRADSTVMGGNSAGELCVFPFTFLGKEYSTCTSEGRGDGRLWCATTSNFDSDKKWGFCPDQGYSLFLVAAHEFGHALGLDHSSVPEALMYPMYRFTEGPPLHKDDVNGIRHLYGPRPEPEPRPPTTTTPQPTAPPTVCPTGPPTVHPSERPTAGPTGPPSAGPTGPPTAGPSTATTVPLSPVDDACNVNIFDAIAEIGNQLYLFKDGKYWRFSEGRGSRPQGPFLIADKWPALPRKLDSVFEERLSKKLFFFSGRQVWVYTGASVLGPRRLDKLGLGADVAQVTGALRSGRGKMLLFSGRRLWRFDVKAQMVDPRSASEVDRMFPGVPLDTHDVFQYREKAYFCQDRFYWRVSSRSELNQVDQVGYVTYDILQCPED
How it was run: (§1)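 Human proMMP-2 and proMMP-9 were activated with 1 mM APMA for 2 h at 37 °C, then used at 6.5 nM (MMP-2) or 10 nM (MMP-9) final in Tris/NaCl/CaCl2/Brij 35 buffer, pH 7.5. After 30 min preincubation with compound at RT, 25 μM FRET peptide substrate was added and fluorescence (ex 280/em 360 nm) followed for 30 min. IC50 came from logistic fits of Vmax.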

MMP-2 = target: T2, MMP-2 (Homo sapiens, UniProt P08253); assay: MMP-2 inhibition assay (fluorogenic peptide substrate); format: biochemical; settings: for IC50: n.d: not detected
T2 construct: purchased Sino Biological 10082-HNAH
T2 sequence (P08253 110-660): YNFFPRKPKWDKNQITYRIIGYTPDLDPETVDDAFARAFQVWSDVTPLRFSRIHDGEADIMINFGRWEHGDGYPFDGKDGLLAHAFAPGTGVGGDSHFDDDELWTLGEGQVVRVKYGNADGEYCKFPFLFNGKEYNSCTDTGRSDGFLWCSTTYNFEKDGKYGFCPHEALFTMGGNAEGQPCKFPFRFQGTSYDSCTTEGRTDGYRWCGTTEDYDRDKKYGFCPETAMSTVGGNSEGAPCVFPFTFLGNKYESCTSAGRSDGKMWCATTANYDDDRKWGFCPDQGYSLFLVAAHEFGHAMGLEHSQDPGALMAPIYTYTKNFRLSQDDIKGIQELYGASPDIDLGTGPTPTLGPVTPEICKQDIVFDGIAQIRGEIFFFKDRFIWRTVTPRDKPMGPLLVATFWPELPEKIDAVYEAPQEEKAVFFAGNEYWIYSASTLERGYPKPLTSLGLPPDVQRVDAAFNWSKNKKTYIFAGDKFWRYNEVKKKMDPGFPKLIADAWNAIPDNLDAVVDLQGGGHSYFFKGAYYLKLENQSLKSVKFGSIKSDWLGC
How it was run: as §1

[1] = mean ± SE, Fig. 5e prints no unit, µM, read-out: IC50
[2] = mean ± SE, Fig. 5d unit inferred, µM, read-out: IC50
[3] = Figure 5d, fragment combination joined by linker, read-out: MMP9 IC50
[4] = Figure 5d, fragment combination joined by linker, read-out: MMP2 IC50
[5] = MMP-9, concentration 1219.00 µM
[6] = MMP-2, concentration 1219.00 µM

## O=C(CSCCNC(=O)c1cncc(O)c1)NCCNC(=O)Cn1cnc2c(oc3ccccc32)c1=O [182+828 Linker 24]
MMP-9; MMP-9, concentration 0.0548 µM, read-out: Mean (MMP-9, Supplementary fig 16)
  remaining activity at 0.0548 µM: 95.4%
MMP-9; MMP-9, concentration 0.27 µM, read-out: Mean (MMP-9, Supplementary fig 16)
  remaining activity at 0.27 µM: 85.7%
MMP-9; MMP-9, concentration 1.37 µM, read-out: Mean (MMP-9, Supplementary fig 16)
  remaining activity at 1.37 µM: 87.6%
MMP-9; MMP-9, concentration 6.86 µM, read-out: Mean (MMP-9, Supplementary fig 16)
  remaining activity at 6.86 µM: 77.5%
MMP-9; MMP-9, concentration 34.28 µM, read-out: Mean (MMP-9, Supplementary fig 16)
  remaining activity at 34.28 µM: 52.4%
MMP-9; MMP-9, concentration 171.40 µM, read-out: Mean (MMP-9, Supplementary fig 16)
  remaining activity at 171.4 µM: 0%
MMP-9; MMP-9, concentration 857.00 µM, read-out: Mean (MMP-9, Supplementary fig 16)
  remaining activity at 857 µM: 0%
MMP-9; [1]
  IC50: 35.3 ± 15 µM
MMP-2; MMP-2, concentration 0.011 µM, read-out: Mean (MMP-2, Supplementary fig 16)
  remaining activity at 0.011 µM: 96.4%
MMP-2; MMP-2, concentration 0.0548 µM, read-out: Mean (MMP-2, Supplementary fig 16)
  remaining activity at 0.0548 µM: 104%
MMP-2; MMP-2, concentration 0.27 µM, read-out: Mean (MMP-2, Supplementary fig 16)
  remaining activity at 0.27 µM: 97.6%
MMP-2; MMP-2, concentration 1.37 µM, read-out: Mean (MMP-2, Supplementary fig 16)
  remaining activity at 1.37 µM: 90.8%
MMP-2; MMP-2, concentration 6.86 µM, read-out: Mean (MMP-2, Supplementary fig 16)
  remaining activity at 6.86 µM: 86.3%
MMP-2; MMP-2, concentration 34.28 µM, read-out: Mean (MMP-2, Supplementary fig 16)
  remaining activity at 34.28 µM: 48.6%
MMP-2; MMP-2, concentration 171.40 µM, read-out: Mean (MMP-2, Supplementary fig 16)
  remaining activity at 171.4 µM: 5.35%
MMP-2; MMP-2, concentration 857.00 µM, read-out: Mean (MMP-2, Supplementary fig 16)
  remaining activity at 857 µM: 0%
MMP-2; [2]
  IC50: 33.3 ± 6.4 µM

## Cc1cc(=O)[nH]c(-n2nc(C)c(CCC(=O)NCCCCCCCCNC(=O)c3cncc(O)c3)c2C)n1 [693_828 4]
MMP-9; [3]
  IC50: 261 µM
MMP-2; [4]
  IC50: 212 µM

## Cc1cc(=O)[nH]c(-n2nc(C)c(CCC(=O)NCc3c[nH]nn3)c2C)n1 [693+787 Linker 1]
MMP-9; MMP-9, concentration 0.08 µM
  remaining enzyme activity (% of control): 91.27
MMP-9; MMP-9, concentration 0.39 µM
  remaining enzyme activity (% of control): 99.91
MMP-9; MMP-9, concentration 1.95 µM
  remaining enzyme activity (% of control): 99.61
MMP-9; MMP-9, concentration 9.75 µM
  remaining enzyme activity (% of control): 100.27
MMP-9; MMP-9, concentration 48.76 µM
  remaining enzyme activity (% of control): 85.00
MMP-9; MMP-9, concentration 243.80 µM
  remaining enzyme activity (% of control): 58.59
MMP-9; [5]
  remaining enzyme activity (% of control): 5.52
MMP-9; [1]
  IC50: 312 ± 67.1 µM
MMP-2; MMP-2, concentration 0.0156 µM
  remaining activity (%): 96.66
MMP-2; MMP-2, concentration 0.08 µM
  remaining activity (%): 98.78
MMP-2; MMP-2, concentration 0.39 µM
  remaining activity (%): 101.13
MMP-2; MMP-2, concentration 1.95 µM
  remaining activity (%): 92.82
MMP-2; MMP-2, concentration 9.75 µM
  remaining activity (%): 86.30
MMP-2; MMP-2, concentration 48.76 µM
  remaining activity (%): 75.55
MMP-2; MMP-2, concentration 243.80 µM
  remaining activity (%): 47.37
MMP-2; [6]
  remaining activity (%): 8.68
MMP-2; [2]
  IC50: 204 ± 37.3 µM

## O=C(CNC(=O)NC12CC3CC(CC(C3)C1)C2)NCc1c[nH]nn1 [66+787 Linker 1]
MMP-9; MMP-9, concentration 0.08 µM
  remaining enzyme activity (% of control): 90.03
MMP-9; MMP-9, concentration 0.39 µM
  remaining enzyme activity (% of control): 107.83
MMP-9; MMP-9, concentration 1.95 µM
  remaining enzyme activity (% of control): 106.33
MMP-9; MMP-9, concentration 9.75 µM
  remaining enzyme activity (% of control): 95.98
MMP-9; MMP-9, concentration 48.76 µM
  remaining enzyme activity (% of control): 92.70
MMP-9; MMP-9, concentration 243.80 µM
  remaining enzyme activity (% of control): 85.14
MMP-9; [5]
  remaining enzyme activity (% of control): 78.29
MMP-2; MMP-2, concentration 0.0156 µM
  remaining activity (%): 93.33
MMP-2; MMP-2, concentration 0.08 µM
  remaining activity (%): 91.88
MMP-2; MMP-2, concentration 0.39 µM
  remaining activity (%): 89.28
MMP-2; MMP-2, concentration 1.95 µM
  remaining activity (%): 98.93
MMP-2; MMP-2, concentration 9.75 µM
  remaining activity (%): 95.17
MMP-2; MMP-2, concentration 48.76 µM
  remaining activity (%): 89.24
MMP-2; MMP-2, concentration 243.80 µM
  remaining activity (%): 91.48
MMP-2; [6]
  remaining activity (%): 64.77

## O=C(Cn1cnc2c(oc3ccccc32)c1=O)NCc1c[nH]nn1 [182_787 1]
MMP-9; [3]
  IC50: 143 µM
MMP-2; [4]
  IC50: 95.5 µM

## O=C(CSCCNC(=O)Cn1cnc2c(oc3ccccc32)c1=O)NCc1c[nH]nn1 [182+787 Linker 24]
MMP-9; MMP-9, concentration 0.0855 µM
  remaining enzyme activity (% of control): 86.26
MMP-9; MMP-9, concentration 0.43 µM
  remaining enzyme activity (% of control): 83.15
MMP-9; MMP-9, concentration 2.14 µM
  remaining enzyme activity (% of control): 95.29
MMP-9; MMP-9, concentration 10.69 µM
  remaining enzyme activity (% of control): 93.78
MMP-9; MMP-9, concentration 53.44 µM
  remaining enzyme activity (% of control): 70.78
MMP-9; MMP-9, concentration 267.20 µM
  remaining enzyme activity (% of control): 19.03
MMP-9; [1]
  IC50: 126 ± 9.6 µM
MMP-2; MMP-2, concentration 0.0171 µM
  remaining activity (%): 92.17
MMP-2; MMP-2, concentration 0.0855 µM
  remaining activity (%): 86.66
MMP-2; MMP-2, concentration 0.43 µM
  remaining activity (%): 97.11
MMP-2; MMP-2, concentration 2.14 µM
  remaining activity (%): 88.49
MMP-2; MMP-2, concentration 10.69 µM
  remaining activity (%): 87.27
MMP-2; MMP-2, concentration 53.44 µM
  remaining activity (%): 39.59
MMP-2; MMP-2, concentration 267.20 µM
  remaining activity (%): 13.68
MMP-2; [2]
  IC50: 45.9 ± 16.2 µM

## Cn1c(O)nc2cc(C(=O)NCCCC/C=C/C(=O)CC(=O)NCC34CC5CC(CC(C5)C3)C4)cnc21 [66+826 Linker 12]
MMP-9; MMP-9, concentration 0.12 µM
  remaining enzyme activity (% of control): 93.60
MMP-9; MMP-9, concentration 0.49 µM
  remaining enzyme activity (% of control): 81.81
MMP-9; MMP-9, concentration 1.95 µM
  remaining enzyme activity (% of control): 96.97
MMP-9; MMP-9, concentration 7.81 µM
  remaining enzyme activity (% of control): 103.45
MMP-9; MMP-9, concentration 31.25 µM
  remaining enzyme activity (% of control): 97.31
MMP-9; MMP-9, concentration 125.00 µM
  remaining enzyme activity (% of control): 94.06
MMP-9; MMP-9, concentration 500.00 µM
  remaining enzyme activity (% of control): 80.41
MMP-2; MMP-2, concentration 0.12 µM
  remaining activity (%): 102.70
MMP-2; MMP-2, concentration 0.49 µM
  remaining activity (%): 99.61
MMP-2; MMP-2, concentration 1.95 µM
  remaining activity (%): 102.06
MMP-2; MMP-2, concentration 7.81 µM
  remaining activity (%): 101.87
MMP-2; MMP-2, concentration 31.25 µM
  remaining activity (%): 95.39
MMP-2; MMP-2, concentration 125.00 µM
  remaining activity (%): 94.81
MMP-2; MMP-2, concentration 500.00 µM
  remaining activity (%): 77.92

## O=C(CNC(=O)NC12CC3CC(CC(C3)C1)C2)NCCCCCCCCNC(=O)c1cncc(O)c1 [66+828 Linker 4]
MMP-9; MMP-9, concentration 0.08 µM
  remaining enzyme activity (% of control): 92.81
MMP-9; MMP-9, concentration 0.39 µM
  remaining enzyme activity (% of control): 100.82
MMP-9; MMP-9, concentration 1.95 µM
  remaining enzyme activity (% of control): 101.95
MMP-9; MMP-9, concentration 9.75 µM
  remaining enzyme activity (% of control): 96.31
MMP-9; MMP-9, concentration 48.76 µM
  remaining enzyme activity (% of control): 80.00
MMP-9; MMP-9, concentration 243.80 µM
  remaining enzyme activity (% of control): 52.30
MMP-9; [5]
  remaining enzyme activity (% of control): 13.62
MMP-2; MMP-2, concentration 0.0156 µM
  remaining activity (%): 106.93
MMP-2; MMP-2, concentration 0.08 µM
  remaining activity (%): 108.75
MMP-2; MMP-2, concentration 0.39 µM
  remaining activity (%): 91.04
MMP-2; MMP-2, concentration 1.95 µM
  remaining activity (%): 95.05
MMP-2; MMP-2, concentration 9.75 µM
  remaining activity (%): 96.24
MMP-2; MMP-2, concentration 48.76 µM
  remaining activity (%): 69.88
MMP-2; MMP-2, concentration 243.80 µM
  remaining activity (%): 65.10
MMP-2; [6]
  remaining activity (%): 54.12

## Cn1c(O)nc2cc(C(=O)NCC34CC5CC(CC(C5)C3)C4)cnc21 [66+826 Linker 1]
MMP-9; MMP-9, concentration 0.12 µM
  remaining enzyme activity (% of control): 90.98
MMP-9; MMP-9, concentration 0.49 µM
  remaining enzyme activity (% of control): 79.87
MMP-9; MMP-9, concentration 1.95 µM
  remaining enzyme activity (% of control): 80.91
MMP-9; MMP-9, concentration 7.81 µM
  remaining enzyme activity (% of control): 80.18
MMP-9; MMP-9, concentration 31.25 µM
  remaining enzyme activity (% of control): 77.01
MMP-9; MMP-9, concentration 125.00 µM
  remaining enzyme activity (% of control): 59.34
MMP-9; MMP-9, concentration 500.00 µM
  remaining enzyme activity (% of control): 44.40
MMP-2; MMP-2, concentration 0.12 µM
  remaining activity (%): 104.18
MMP-2; MMP-2, concentration 0.49 µM
  remaining activity (%): 97.92
MMP-2; MMP-2, concentration 1.95 µM
  remaining activity (%): 99.61
MMP-2; MMP-2, concentration 7.81 µM
  remaining activity (%): 91.81
MMP-2; MMP-2, concentration 31.25 µM
  remaining activity (%): 84.92
MMP-2; MMP-2, concentration 125.00 µM
  remaining activity (%): 90.24
MMP-2; MMP-2, concentration 500.00 µM
  remaining activity (%): 77.04
